We go through one molecule from patent US20230321067A1, “DOSING REGIMEN COMPRISING 3-(1-OXOISOINDOLIN-2-YL)PIPERIDINE-2,6-DIONE DERIVATIVES” (Novartis AG, priority 2020, published 2023).

The test system of data set [1] is Treg cells. In words: Suppressive potency of Treg cells expanded in the presence of compound (FIG. 2C). Type of data set: cell-based. The text has this: FIG. 2C is a bar graph showing the suppressive potency of Treg cells expanded in the presence of Compound I-57.
The target of data set [2] is T1, IKZF2 (Oryctolagus cuniculus, UniProt A0A5F9CPW0).
T1 construct: endogenous in cells; host or cells: primary rabbit PBMCs
T1 sequence (A0A5F9CPW0 1-526): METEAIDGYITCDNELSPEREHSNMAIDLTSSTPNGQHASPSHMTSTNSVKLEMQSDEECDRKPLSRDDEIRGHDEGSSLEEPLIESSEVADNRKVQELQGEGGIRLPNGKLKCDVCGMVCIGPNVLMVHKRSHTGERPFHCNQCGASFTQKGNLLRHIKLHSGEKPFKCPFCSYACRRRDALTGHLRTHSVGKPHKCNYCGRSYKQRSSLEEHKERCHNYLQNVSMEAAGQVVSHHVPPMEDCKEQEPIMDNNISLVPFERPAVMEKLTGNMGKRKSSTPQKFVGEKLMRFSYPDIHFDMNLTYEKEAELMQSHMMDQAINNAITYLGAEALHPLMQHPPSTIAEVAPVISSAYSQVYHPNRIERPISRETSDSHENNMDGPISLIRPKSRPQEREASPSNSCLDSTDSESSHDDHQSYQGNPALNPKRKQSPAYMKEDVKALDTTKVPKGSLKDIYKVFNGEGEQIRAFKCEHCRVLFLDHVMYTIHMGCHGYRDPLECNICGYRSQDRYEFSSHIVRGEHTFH
Put plainly: Degradation of IKZF2 in primary PBMCs, rabbit (FIG. 3). Type of data set: cell-based. The text has this:
FIG. 3. is a bar graph showing the degradation of IKZF2 in primary PBMCs obtained from rabbit, dog, pig, cynomolgus monkey and human, and in primary splenocytes of mouse and rat and treated with Compound I-57.

In data set [3] the test system is peripheral T cells. Put plainly: Proliferation of peripheral T cells (Ki67 staining) in immunized cynomolgus monkeys (FIG. 9B). The format is in vivo, cynomolgus monkey. The conditions noted are these: 3 mg/kg daily, recall response phase, compared to immunization alone. The procedure: FIG. 9B. is a graph showing proliferation of peripheral T cells (Mean+/−SEM, % of predose) upon treatment with 0.1 and 3 mg/kg of Compound I-57 in cynomolgus monkeys.

The target in data set [4] is T2, FIZ1 (Homo sapiens, UniProt Q96SL8).
T2 construct: endogenous in cells; host or cells: 293T
T2 sequence (Q96SL8 whole entry): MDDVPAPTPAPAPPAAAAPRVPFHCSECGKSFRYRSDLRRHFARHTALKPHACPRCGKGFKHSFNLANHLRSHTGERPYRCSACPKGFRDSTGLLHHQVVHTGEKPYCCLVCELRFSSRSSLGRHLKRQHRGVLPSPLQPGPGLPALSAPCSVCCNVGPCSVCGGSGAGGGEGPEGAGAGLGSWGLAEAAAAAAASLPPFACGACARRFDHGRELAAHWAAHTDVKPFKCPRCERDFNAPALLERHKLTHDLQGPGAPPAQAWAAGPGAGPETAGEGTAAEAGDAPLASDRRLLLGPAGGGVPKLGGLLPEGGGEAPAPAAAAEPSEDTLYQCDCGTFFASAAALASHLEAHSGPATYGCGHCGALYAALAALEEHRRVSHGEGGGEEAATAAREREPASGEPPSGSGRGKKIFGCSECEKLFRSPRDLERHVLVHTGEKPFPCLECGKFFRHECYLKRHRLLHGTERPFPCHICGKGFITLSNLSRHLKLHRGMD
In words: Whole cell proteomic analysis in 293T cells and subsequent analyses: FIZ1. Type of data set: cell-based. The procedure:
Other potential degradation targets of I-57 were evaluated in 293T cells using whole cell proteomic analysis. […] Subsequent analyses have confirmed that FIZ1 is degraded by about 50% at a 10 μM concentration of I-57 ([I-57 Investigator's Brochure]). […] FIZ1 is expressed in the neural retina where it transcriptionally represses the differentiation of photoreceptors. FIZ1 is also expressed in non-ocular tissues with unknown function.

The subject of data set [5] is plasma protein. Put plainly: Plasma protein binding in vitro, monkey. The format is in vitro ADME. From the text:
(§1) The binding to plasma protein of I-57 in vitro was moderate in all species, with an observed difference between rodents (73% in mouse, 76% in rat) and non-rodents (52% in dog and monkey, 54% in human). Blood-to-plasma ratios were in the range of 0.7-1.8 (human 1.1-1.3). […] Based on results with non-radiolabeled I-57 in the dog, a significant amount of unchanged I-57 was renally eliminated (˜20% of dose).

The nature of data set [6]: Blood-to-plasma ratio, across species. The format is in vitro ADME.
Text: as §1

Data set [7] deals with CYP3A4 (Homo sapiens, UniProt P08684). Put plainly: Enzyme phenotyping with human recombinant CYPs. The format is in vitro ADME. As to conditions: human recombinant CYPs in vitro; preliminary assessment. The procedure: In vivo in the dog, very minor amounts of the N-dealkylation product and products derived from hydrolysis of the glutarimide moiety were detected in plasma. While the contribution of CYP-mediated oxidative metabolism to systemic clearance is unknown, a preliminary assessment of the enzymes involved was conducted using human recombinant CYPs in vitro.
Sequence of CYP3A4 (P08684 whole entry): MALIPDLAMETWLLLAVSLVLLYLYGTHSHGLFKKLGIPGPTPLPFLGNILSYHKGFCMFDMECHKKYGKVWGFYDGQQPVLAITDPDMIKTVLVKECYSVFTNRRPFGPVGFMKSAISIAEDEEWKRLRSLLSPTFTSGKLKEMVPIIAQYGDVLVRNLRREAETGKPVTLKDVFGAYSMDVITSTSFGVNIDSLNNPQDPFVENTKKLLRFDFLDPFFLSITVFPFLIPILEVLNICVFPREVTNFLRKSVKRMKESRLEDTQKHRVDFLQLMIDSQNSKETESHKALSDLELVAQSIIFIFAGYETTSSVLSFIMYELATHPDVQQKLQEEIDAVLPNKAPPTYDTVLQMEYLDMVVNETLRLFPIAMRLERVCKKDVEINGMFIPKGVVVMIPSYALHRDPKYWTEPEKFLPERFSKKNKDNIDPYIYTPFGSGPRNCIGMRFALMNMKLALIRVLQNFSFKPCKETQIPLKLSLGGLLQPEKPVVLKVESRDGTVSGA

Data set [8] deals with CYP2D6 (Homo sapiens, UniProt P10635). Put plainly: CYP inhibition: CYP2D6. The format is in vitro ADME.
Sequence of CYP2D6 (P10635 whole entry): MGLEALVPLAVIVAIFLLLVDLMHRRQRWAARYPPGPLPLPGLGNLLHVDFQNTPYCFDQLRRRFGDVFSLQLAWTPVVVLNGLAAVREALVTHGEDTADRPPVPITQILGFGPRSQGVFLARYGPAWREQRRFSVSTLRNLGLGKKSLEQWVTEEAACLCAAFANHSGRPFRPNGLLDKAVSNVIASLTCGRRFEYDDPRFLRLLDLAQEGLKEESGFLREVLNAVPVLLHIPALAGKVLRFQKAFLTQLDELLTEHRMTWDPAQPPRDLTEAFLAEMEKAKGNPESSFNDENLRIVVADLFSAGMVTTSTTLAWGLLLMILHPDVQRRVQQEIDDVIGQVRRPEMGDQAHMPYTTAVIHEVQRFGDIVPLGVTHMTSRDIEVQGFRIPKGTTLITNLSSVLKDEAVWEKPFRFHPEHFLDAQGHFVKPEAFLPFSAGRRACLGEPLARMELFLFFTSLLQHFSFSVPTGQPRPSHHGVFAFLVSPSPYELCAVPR
Data set [9] deals with CYP1A2 (Homo sapiens, UniProt P05177). Put plainly: Time-dependent CYP inhibition: CYP1A2. The format is in vitro ADME. As to conditions: I-57 concentrations of up to 100 μM.
Sequence of CYP1A2 (P05177 whole entry): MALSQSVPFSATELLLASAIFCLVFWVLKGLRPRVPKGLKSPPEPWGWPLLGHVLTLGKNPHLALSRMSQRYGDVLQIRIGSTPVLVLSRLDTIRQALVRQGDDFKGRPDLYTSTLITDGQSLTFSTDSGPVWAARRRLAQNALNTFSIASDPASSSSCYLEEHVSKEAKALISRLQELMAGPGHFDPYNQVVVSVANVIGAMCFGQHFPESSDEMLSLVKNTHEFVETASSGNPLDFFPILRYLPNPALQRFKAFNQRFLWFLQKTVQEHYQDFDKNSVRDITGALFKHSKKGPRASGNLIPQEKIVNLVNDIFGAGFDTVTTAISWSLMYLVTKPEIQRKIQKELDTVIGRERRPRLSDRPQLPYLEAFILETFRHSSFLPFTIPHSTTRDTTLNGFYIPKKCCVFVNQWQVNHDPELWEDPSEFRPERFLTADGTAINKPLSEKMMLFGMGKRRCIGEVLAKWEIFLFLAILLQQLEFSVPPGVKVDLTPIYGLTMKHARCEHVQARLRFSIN
The target of data set [10] is PXR (Homo sapiens, UniProt O75469). Put plainly: PXR reporter gene assay (CYP3A induction potential). The format is cell-based. The text has this:
Based on a PXR reporter gene assay, I-57's induction potential for CYP3A appears to be low.
In general terms: Reporter assays use an easily measured gene product as a stand-in for the process of interest.

Data set [11] can be described thus: ECG (QTc) in monkeys, single dose and 4-week GLP repeat dose study. Type of data set: in vivo, monkey. The procedure:
The risk of possible QTc interval prolongation at the starting dose is therefore considered low. QT prolongation may become clinically significant during escalation but are not anticipated to be dose limiting until doses at or above 640 mg. Monitoring and other measures to mitigate potential risk of arrhythmia is addressed in Example 3 below.

Data set [12] addresses T3, IKZF2 (Homo sapiens, UniProt Q96SW2+Q9UKS7). In words: IKZF2 protein levels in total tumor-infiltrating lymphocytes by immunohistochemistry, hPBMC AdT model with MDA-MB231 xenografts (FIG. 8A, 8B). More on the design: endogenous in cells; host or cells: primary human PBMCs. Type of data set: in vivo. As to conditions: 24 h post the 14th daily dose. The procedure: FIG. 6 is a pictorial representation of the multi-dose PK/PD study design in the human PBMC adoptive transfer mouse model harboring MDA-MB231 xenografts. Fourteen consecutive daily doses of Compound I-57 was administered at 0.3 mg/kg, 1 mg/kg, 3 mg/kg or 30 mg/kg.
FIG. 8A is a bar graph showing the change in the IKZF2 protein levels in total tumor-infiltrating lymphocytes by immunohistochemistry (IHC) at 24 h post the 14th daily dose of 1, 3 or 30 mg/kg Compound I-57.

Data set [13] addresses T3, IKZF2. Put plainly: IKZF2 in human Tregs (tumor, blood) by flow cytometry, hPBMC AdT model. The format is in vivo, NSG mice with human PBMCs. More on the design: endogenous in cells; host or cells: human lymphocytes (CD4+FOXP3+ Tregs; total tumor-infiltrating lymphocytes) from healthy-donor PBMC transferred into NSG mice. The procedure:
The PK/PD relationship of I-57 was examined in the hPBMC AdT model system. Human PBMCs were adoptively transferred into female NSG mice harboring established MDA-MB231 xenografts (FIG. 6). This model was selected based on the observation that IKZF2 positive Tregs (CD4+FOXP3+) were readily identifiable in peripheral blood and infiltrated in the tumor xenografts.
The impact of I-57 on IKZF2 protein expression in human Tregs in the periphery and infiltrated in MDA-MB231 xenografts was assessed via flow cytometry at multiple time points after the last I-57 dose. […] Maximum effects were generally observed 4-16 h post dose. At a given dose level, the magnitude and duration of IKZF2 reduction in Tregs was generally consistent across tissues (tumor, spleen and blood).
Based on the data from this hPBMC AdT mouse model, unbound I-57 (73% percent plasma binding in the mouse) exposures (AUCinf) of 7, 30, 157 and 3474 ng*h/mL are required to achieve the reduction of IKZF2 positivity (via flow cytometry) in tumor Tregs by 31, 43, 56, and 75%, respectively. The relationship between the magnitude and duration of I-57-mediated IKZF2 degradation and subsequent modulation of therapeutically relevant downstream biology is not yet well understood.
For orientation: In flow cytometry, cells or beads pass a laser one at a time.

T3 sequence (Q9UKS7 whole entry): as the sequence (A0A5F9CPW0 1-526) above, with D68E, V234M, M266I, S373A, N423H, V449A counted along it
T3 sequence (Q96SW2 whole entry): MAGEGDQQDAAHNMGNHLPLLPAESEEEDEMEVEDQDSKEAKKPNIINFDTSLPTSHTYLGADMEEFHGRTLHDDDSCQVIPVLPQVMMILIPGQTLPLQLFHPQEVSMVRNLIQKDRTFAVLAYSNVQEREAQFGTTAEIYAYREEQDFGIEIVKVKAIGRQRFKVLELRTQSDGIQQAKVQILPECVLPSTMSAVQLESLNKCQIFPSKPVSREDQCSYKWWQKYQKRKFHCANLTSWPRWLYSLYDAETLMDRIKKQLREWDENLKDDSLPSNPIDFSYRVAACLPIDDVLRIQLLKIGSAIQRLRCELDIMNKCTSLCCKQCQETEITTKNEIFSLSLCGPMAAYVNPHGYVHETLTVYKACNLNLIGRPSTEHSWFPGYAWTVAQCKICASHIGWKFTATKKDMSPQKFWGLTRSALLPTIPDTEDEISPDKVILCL
T3 sequence (Q16531 whole entry partner): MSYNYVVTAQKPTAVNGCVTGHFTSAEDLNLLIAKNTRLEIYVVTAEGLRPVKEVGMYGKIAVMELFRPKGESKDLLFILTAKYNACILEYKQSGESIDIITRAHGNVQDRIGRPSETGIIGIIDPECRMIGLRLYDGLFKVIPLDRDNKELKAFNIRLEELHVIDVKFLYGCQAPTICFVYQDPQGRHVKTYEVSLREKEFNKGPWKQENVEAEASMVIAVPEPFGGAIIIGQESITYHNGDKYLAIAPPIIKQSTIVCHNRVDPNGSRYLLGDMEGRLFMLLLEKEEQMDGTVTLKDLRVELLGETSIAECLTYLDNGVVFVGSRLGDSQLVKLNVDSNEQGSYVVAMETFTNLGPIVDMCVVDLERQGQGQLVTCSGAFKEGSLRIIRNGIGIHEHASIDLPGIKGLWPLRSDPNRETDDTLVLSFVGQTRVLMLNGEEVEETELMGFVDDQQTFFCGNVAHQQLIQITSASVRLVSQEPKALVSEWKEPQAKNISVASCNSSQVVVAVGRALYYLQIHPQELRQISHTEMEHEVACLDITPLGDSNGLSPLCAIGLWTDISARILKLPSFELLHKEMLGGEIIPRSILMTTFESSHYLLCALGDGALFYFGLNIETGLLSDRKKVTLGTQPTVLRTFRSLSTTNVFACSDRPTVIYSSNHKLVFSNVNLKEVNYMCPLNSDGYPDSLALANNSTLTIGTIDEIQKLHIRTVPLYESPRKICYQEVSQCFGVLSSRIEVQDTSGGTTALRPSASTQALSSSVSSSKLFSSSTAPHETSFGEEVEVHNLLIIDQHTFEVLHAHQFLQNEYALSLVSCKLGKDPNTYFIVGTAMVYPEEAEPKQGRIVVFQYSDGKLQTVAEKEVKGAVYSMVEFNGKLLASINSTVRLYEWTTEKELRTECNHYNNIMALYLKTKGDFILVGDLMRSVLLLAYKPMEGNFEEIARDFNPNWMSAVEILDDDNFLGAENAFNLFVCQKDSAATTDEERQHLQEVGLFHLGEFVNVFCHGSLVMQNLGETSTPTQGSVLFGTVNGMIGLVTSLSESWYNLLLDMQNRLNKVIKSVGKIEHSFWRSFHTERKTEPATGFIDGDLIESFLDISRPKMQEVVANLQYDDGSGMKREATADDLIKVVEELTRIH
Sequence of PXR (O75469 whole entry): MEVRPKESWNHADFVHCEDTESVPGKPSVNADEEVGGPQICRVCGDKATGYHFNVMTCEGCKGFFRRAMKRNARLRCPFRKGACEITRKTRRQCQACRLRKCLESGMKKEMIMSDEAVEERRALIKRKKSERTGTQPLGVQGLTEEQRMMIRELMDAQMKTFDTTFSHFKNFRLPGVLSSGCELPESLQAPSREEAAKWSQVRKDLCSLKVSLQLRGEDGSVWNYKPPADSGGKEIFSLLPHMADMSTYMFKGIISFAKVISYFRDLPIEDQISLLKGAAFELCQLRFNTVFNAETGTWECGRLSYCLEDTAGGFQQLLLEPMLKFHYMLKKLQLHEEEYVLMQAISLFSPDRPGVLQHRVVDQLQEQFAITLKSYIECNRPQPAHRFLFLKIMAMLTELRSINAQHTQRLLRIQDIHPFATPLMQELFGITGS

Take `O=C1CCC(N2Cc3cc(C4CCN(Cc5ccccc5)CC4)ccc3C2=O)C(=O)N1` (stereo not drawn) [Compound I-57, 3-(5-(1-benzylpiperidin-4-yl)-1-oxoisoindolin-2-yl)piperidine-2,6-dione]: the “capacity of Treg cells to suppress Teff proliferation” value in data set [1] was “reduced capacity to suppress Teff proliferation”. In addition, in [2], the “degradation of IKZF2” value was “degradation was observed”. The “proportion of proliferative peripheral T cells (Ki67 staining)” value in data set [3] is reported as “increased”. For the same molecule, the “degradation of FIZ1” value in data set [4] (10 μM I-57, subsequent analyses) is “about 50%”; in [4] (293T cells, whole cell proteomic analysis), “degraded”. For the same molecule, the “binding to plasma protein” value in data set [5] came to 52%. For the same molecule, in data set [6], the blood plasma ratio fell in the range of 0.7 to 1.8. The “CYP enzyme mediating oxidative metabolism” value in data set [7] was “CYP3A4 was found to primarily mediate these reactions”. Moreover, the IC50 (commonly the point on the concentration scale where inhibition reaches its midpoint) in data set [8] was around 65 µM. The “time-dependent inhibition of CYP1A2” value in data set [9] was “no apparent time-dependent inhibition”. The “induction potential for CYP3A” value in data set [10] was “low”. The “cardiac electrical instability or wave abnormality” value in [11] is “No cardiac electrical instability or wave abnormality was observed”. Also, in data set [11] (3 mg/kg), the QT effects result was “no QT effects were noted”. Further, the “free Cmax in monkeys at 3 mg/kg relative to free Cmax predicted at the clinical starting dose of 20 mg” value in data set [11] (3 mg/kg) is around 8.4 times. In data set [11] (coinciding with Tmax), the “time of highest magnitude of the QTc effect” value lay in the range of 0.5 to 5.5 h. In addition, the “increase in QTc interval” value in data set [11] (doses >10 mg/kg, single dose and 4-week GLP repeat dose study) is on record as “at least 30 mSec”. For the same molecule, the “maximal level of IKZF2 degradation in total tumor-infiltrating lymphocytes (IHC)” value in [12] (30 mg/kg) was “approximately 85%”. For the same molecule, the “reduction in IKZF2 levels in total tumor-infiltrating lymphocytes (IHC)” value in data set [12] (1, 3 and 30 mg/kg doses) is recorded as “Robust reduction”. The “reduction of IKZF2 positivity in tumor Tregs” value is reported as 31% in data set [13] (flow cytometry, unbound exposure (AUCinf) 7 ng*h/mL); 43% in data set [13] (flow cytometry, unbound exposure (AUCinf) 30 ng*h/mL); 56% in data set [13] (flow cytometry, unbound exposure (AUCinf) 157 ng*h/mL); 75% in [13] (flow cytometry, unbound exposure (AUCinf) 3474 ng*h/mL). Also, in data set [13] (post dose, hPBMC AdT model), the “time of maximum effects on IKZF2 positive Tregs” value is 4 to 16 h. In addition, the “IKZF2 degradation (reduction of the percentage of IKZF2 positive Tregs)” value in data set [13] (tumor and peripheral blood, after 14 daily doses, flow cytometry) was “robust dose and exposure-dependent IKZF2 degradation”.
